What was measured:
Experiment in all cases: relative viability (nuclei count vs DMSO), 5 days (fraction); higher = more cells survive
Bortezomib + Crizotinib = compound: CC(C)C[C@H](NC(=O)[C@H](Cc1ccccc1)NC(=O)c1cnccn1)B(O)O [Bortezomib] + C[C@@H](Oc1cc(-c2cnn(C3CCNCC3)c2)cnc1N)c1c(Cl)ccc(F)c1Cl [Crizotinib] (partner 1 µM)
Procedure, shortened: (§1)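 A single step with final 0.05% Triton X-100, 1% formaldehyde and 1 ug/ml Hoechst fixed the cells and stained nuclei 5 days after treatment. Lung cancer cell lines in 1536-well plates had been treated by pin tool the day after seeding with one drug alone or a fixed anchor-drug dose plus five library-drug doses (not always all listed) in √10 steps, and nuclei were counted on 4× images. Relative viability is the ratio of nuclei in treated wells to nuclei in vehicle wells, taken as the median of duplicate plates.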

Bortezomib + Decitabine = compound: CC(C)C[C@H](NC(=O)[C@H](Cc1ccccc1)NC(=O)c1cnccn1)B(O)O [Bortezomib] + Nc1ncn([C@H]2C[C@H](O)[C@@H](CO)O2)c(=O)n1 [Decitabine] (partner 2 µM)
Procedure, shortened: as §1

Obatoclax + OSI-027 = compound: COC1=CC(c2cc3ccccc3[nH]2)=N/C1=C\c1[nH]c(C)cc1C [Obatoclax] + COc1cccc2cc(-c3nc([C@H]4CC[C@H](C(=O)O)CC4)n4ncnc(N)c34)[nH]c12 [OSI-027] (partner 0.5 µM)
Procedure, shortened: as §1

Obatoclax + Linsitinib = compound: COC1=CC(c2cc3ccccc3[nH]2)=N/C1=C\c1[nH]c(C)cc1C [Obatoclax] + C[C@]1(O)C[C@@H](c2nc(-c3ccc4ccc(-c5ccccc5)nc4c3)c3c(N)nccn32)C1 [Linsitinib] (partner 1 µM)
Procedure, shortened: as §1

Row | Cell Line | relative viability (Bortezomib + Crizotinib; first compound 0.002 µM) | relative viability (Bortezomib + Crizotinib; first compound 0.006325 µM) | relative viability (Bortezomib + Crizotinib; first compound 0.02 µM) | relative viability (Bortezomib + Decitabine; first compound 0.0002 µM) | relative viability (Bortezomib + Decitabine; first compound 0.000632 µM) | relative viability (Bortezomib + Decitabine; first compound 0.002 µM) | relative viability (Bortezomib + Decitabine; first compound 0.006325 µM) | relative viability (Bortezomib + Decitabine; first compound 0.02 µM) | relative viability (Obatoclax + OSI-027; first compound 0.01 µM) | relative viability (Obatoclax + OSI-027; first compound 0.03162 µM) | relative viability (Obatoclax + OSI-027; first compound 0.1 µM) | relative viability (Obatoclax + OSI-027; first compound 0.3162 µM) | relative viability (Obatoclax + OSI-027; first compound 1 µM) | relative viability (Bortezomib + Crizotinib; first compound 0.0002 µM) | relative viability (Bortezomib + Crizotinib; first compound 0.000632 µM) | relative viability (Obatoclax + Linsitinib; first compound 0.01 µM) | relative viability (Obatoclax + Linsitinib; first compound 0.03162 µM) | relative viability (Obatoclax + Linsitinib; first compound 0.1 µM) | relative viability (Obatoclax + Linsitinib; first compound 0.3162 µM) | relative viability (Obatoclax + Linsitinib; first compound 1 µM)
1 | ChaGo-K-1 | 1.11 | 0.304 | 0.236 | 0.49 | 0.444 | 0.561 | 0.444 | 0.161 | 0.694 | 0.549 | 0.522 | 0.512 | 0.63 | – | – | – | – | – | – | –
2 | EBC-1 | 0.162 | 0.106 | 0.0978 | – | – | – | – | – | – | – | – | – | – | 0.172 | 0.172 | 0.771 | 0.879 | 0.922 | 0.87 | 0.65
3 | EKVX | 0.822 | 0.268 | 0.106 | 0.36 | 0.393 | 0.431 | 0.25 | 0.0809 | 0.708 | 0.74 | 0.797 | 0.561 | 0.667 | 0.942 | 0.894 | 0.978 | 0.923 | 1.07 | 0.907 | 0.876
4 | EMC-BAC-2 | 0.766 | 0.199 | 0.113 | 1.07 | 0.987 | 0.828 | 0.559 | 0.196 | 0.413 | 0.382 | 0.297 | 0.332 | 0.299 | 0.71 | 0.692 | 0.796 | 0.817 | 0.827 | 0.797 | 0.875
5 | EPLC-272H | 0.972 | 0.584 | 0.07 | 0.378 | 0.348 | 0.321 | 0.0848 | 0.065 | 0.277 | 0.279 | 0.333 | 0.247 | 0.203 | – | – | 1.13 | 1.22 | 1.15 | 1.03 | 1.2
6 | H3255 | 0.452 | 0.195 | 0.208 | 0.587 | 0.583 | 0.316 | 0.192 | 0.204 | 0.584 | 0.591 | 0.751 | 0.617 | 0.666 | 0.734 | 0.914 | 0.893 | 0.976 | 0.985 | 0.884 | 0.892
7 | HARA | 0.789 | 0.0536 | 0.067 | 0.459 | 0.569 | 0.415 | 0.125 | 0.124 | 0.456 | 0.555 | 0.444 | 0.438 | 0.168 | 0.961 | 0.966 | 0.923 | 0.316 | 1.03 | 0.703 | 0.919
8 | HCC-15 | 0.904 | 0.46 | 0.0815 | 0.626 | 0.619 | 0.598 | 0.111 | 0.114 | 0.745 | 0.641 | 0.446 | 0.662 | 0.447 | 0.784 | 0.825 | 0.879 | 0.708 | 0.845 | 0.736 | 0.606
9 | HCC-44 | 0.839 | 0.116 | 0.153 | 0.965 | 0.965 | 0.961 | 0.953 | 0.258 | 0.577 | 0.422 | 0.219 | 0.441 | 0.333 | 0.816 | 0.842 | 0.688 | 0.628 | 0.688 | 0.555 | 0.63
